Like-named read-outs stand apart in the source and are kept apart here.
Legend:
[1] = white powder
[2] = rat, in vivo, po
Description: (§1) The sodium ampicillin and the talampicillin hydrochloride have been administered in aqueous solution; the other talampicillin salts have been administered in aqueous suspension.
(§2) At 0.5, 1,2,4 and 6 hours after the administration the animals were sacrified and their blood was taken from the portal vein.

[3] = cited from earlier work
in vivo = conditions: rat, po, 100 mg/kg
Description: as §1, §2

| mcg/ml ampicillin, average ± standard error ([2]; 30 min) | mcg/ml ampicillin, average ± standard error ([2]; 60 min) | mcg/ml ampicillin, average ± standard error ([2]; 120 min) | mcg/ml ampicillin, average ± standard error ([2]; 240 min) | mcg/ml ampicillin, average ± standard error ([2]; 360 min) | SMILES | other results |
| --- | --- | --- | --- | --- | --- | --- |
| 23.4 ± 2.4 µg/mL | 10.2 ± 0.9 µg/mL | 3.8 ± 1.1 µg/mL | 1.7 ± 0.4 µg/mL | 1.6 ± 1 µg/mL | CC1(C)S[C@@H]2[C@H](NC(=O)[C@H](N)c3ccccc3)C(=O)N2[C@H]1C(=O)OC1OC(=O)c2ccccc21 (single isomer, unassigned) [talampicillin 2-methoxyphenoxyacetate, 2-methoxyphenoxyacetate of the phthalidyl ester of the 6-[D(-)-α-aminophenylacetamido]penicillanic acid] | storage [1]: do not show any problem of storage; SBC [2]: 30 |
| – | – | – | – | – | CC1(C)S[C@@H]2[C@H](NC(=O)[C@H](N)c3ccccc3)C(=O)N2[C@H]1C(=O)OC1OC(=O)c2ccccc21 (single isomer, unassigned) [talampicillin, phtahlidyl ester of the 6-[D(-)-α-aminophenylacetamido]penicillanic acid] | blood levels of the parent ampicillin (in words) ([3]; in vivo, po): very high blood levels of the parent ampicillin; absorption (in words) ([3]; oral route, animals and man): well absorbed when administered by oral route in animals and in man |
| – | – | – | – | – | CC1(C)S[C@@H]2[C@H](NC(=O)[C@H](N)c3ccccc3)C(=O)N2[C@H]1C(=O)O [sodium ampicillin, 6-[D(-)-α-aminophenylacetamido]penicillanic acid] | AUC at 6 h (in vivo): 10700 ng·h/mL; concentration at 0.5 h (in vivo): 6400 ng/mL; concentration at 1 h (in vivo): 4600 ng/mL; concentration at 2 h (in vivo): 1400 ng/mL; concentration at 4 h (in vivo): 800 ng/mL; concentration at 6 h (in vivo): 200 ng/mL |
| 14.8 ± 3.4 µg/mL | 6.1 ± 1.8 µg/mL | 2.7 ± 0.2 µg/mL | 1.9 ± 0.6 µg/mL | 1.1 ± 0.1 µg/mL | CC1(C)S[C@@H]2[C@H](NC(=O)[C@H](N)c3ccccc3)C(=O)N2[C@H]1C(=O)OC1OC(=O)c2ccccc21 (some centres unmarked) [talampicillin napsylate, naphthalene 2-sulphonate of talampicillin] | – |

From patent US4293560A, “Talampicillin 2-methoxyphenoxyacetate and pharmaceutical compositions containing it” (priority 1980, dated 1981)
